The record followed here is patent US8110654B2, “T cell epitope peptides of ovarian cancer anti-idiotypic antibody 6B11 and use thereof” (Peking University People;s Hospital, priority 2006, dated 2012).

In one assay the test system is CD4 T cells. Description: BrdU cell proliferation assay after magnetic bead sorting of CD4 T cells. Type of assay: cell-based, human. As to conditions: reacting cells sorted for CD4 T cells by magnetic beads. How it is done:
All the CDR peptides of anti-idiotype antibody 6B11 (6 peptides) were synthesized artificially. The peptides were screened for Th epitope peptides by cell proliferation assay. Anti-idiotype antibody 6B11-CTLs stimulated for one period were used as reacting cells. DCs loaded with anti-idiotype antibodies and peptides respectively were used as stimulating cells. The reacting cells and the stimulating cells (in the ratio of 10:1) were co-incubated at 37° C. under 5% CO2 for 120 hours and then subject to BrdU ELISA cell proliferation assay. Each well contained 100 μl AIM-V culture medium and 1×10^5 anti-idiotype antibody 6B11-CTLs. Within the last 2 hours during stimulation, 10 μl BrdU labeling solution was added into each well and the fluid in the wells was removed. The cells were dried at 60° C. for 1 hour. 200 μl of FixDenat solution was added into each well. The reaction continued for 30 minutes at 37° C. for fixing DNA in the lymphocytes. Finally, 100 μl BrdU monoclonal antibody was added into each well for 90 minutes. The absorption value at 450 nm was read by an automatic microplate reader after substrate chromogenic reaction for detecting the proliferation of the cells. The group of DCs without loading and the group of phytohaemagglutinin (PHA) were used as negative and positive control respectively. […] Other peptides could not stimulate the proliferation of the reacting cells.
For further analyzing the proliferation of the cells, stimulating cells were blocked by anti-human MHC class II antibodies, for evaluating the effect of Th epitope peptides. Firstly, the optimal application concentration of MHC class II antibodies was determined by experiments to be 1:20 dilution (FIG. 3). […] Other peptides could not trigger cell proliferation, no matter whether MHC class II antibodies were applied or not (FIG. 4). […] The reacting cells were subject to magnetic bead sorting of CD4 T cells.

For assay [1], the system named is HOC1A cells. Description: Cytokine ELISA of supernatant of CTLs co-incubated with HOC1A cells. Type of assay: cell-based. The note with it: CTL:HOC1A 40:1, 48 hours, double-antibody-sandwich ELISA. How it is done:
6B11-CTLs, VH CDR3-CTLs and VL CDR3-CTLs were mixed with target HOC1A cells in the ratio of 40:1 respectively and co-incubated at 37° C. under 5% CO2 for 48 hours. The supernatant was harvested, and the contents of IL-2, IFN-γ and IL-4 determined by double-antibody-sandwich ELISA. […] VH CDR3 peptide- and VL CDR3 peptide-specific CTLs could also secrete high levels of IL-2 and IFN-γ while the secretion of IL-4 was in a low level, which was in a similar trend as that of the immune response induced by anti-idiotype antibody 6B11. This indicated from a different perspective that VH CDR3 peptide and VL CDR3 peptide were involved in the induction of T cell immune response derived from anti-idiotype antibody 6B11 (FIG. 13).
(In general: In an ELISA, binding on a coated surface is turned into a signal by an enzyme label.)

Assay [2] has as its system HOC1A cells. Description: 51Cr release assay, specific CTLs against HOC1A cells. The class given is cell-based. The note with it: for killing of HOC1A cells by peptide-CTLs: CTLs stimulated three periods, 4 hours, effector/target 40:1 to 5:1; for killing effect on HOC1A cells, comparison of antigens: T cells stimulated with single peptide 30 μg/ml, or VH CDR3 15 μg/ml plus VL CDR3 15 μg/ml, or 6B11 40 μg/ml; for killing of HOC1A cells after MHC class I molecule blocking: anti-human MHC class I antibodies 1:20 dilution. From the text: (§1) The freeze-stored autologous lymphocytes were stimulated by DCs loaded with the peptides and KLH, to obtain peptide-specific CTLs (peptide-CTLs). One period consists of 7 days. On Day 3 of every period, 10 U/ml rh IL-2 was supplemented. Finally, peptide-CTLs were obtained after a 3-period stimulation.
(§2) 6B11-CTLs stimulated for one period were harvested and used as reacting cells in cell proliferation assay, ELISA cytokine assay and IFN-γ ELISPOT assay. 6B11-CTLs and peptide-CTLs stimulated for 3 periods were harvested for use in ^51Cr release assay as effector cells.
(§3) 6B11-CTLs and peptide-CTLs stimulated for three periods were used as effector cells. T2 cells, HOC1A cells and HLE cells loaded with corresponding peptides were used as target cells. Standard ^51Cr release assay was carried out for 4 hours. Target cells (1×10^6 cells) were placed into 0.5 ml RPMI 1640 culture medium (containing 5% fetal bovine serum). 100 μCi Na2^51CrO4 was added. The labeling reaction was allowed to continue overnight at 37° C. Then the cells were washed by cold RPMI 1640 culture medium (containing 5% fetal bovine serum) for three times to terminate the labeling reaction. Target cells (5×10^3 cells) were placed into 100 μl culture medium and then mixed with an equal volume of effector cells in a 96-well plate. The ratio of effector/target was set as 40:1, 20:1, 10:1 and 5:1. Spontaneous release wells contained target cells and the culture medium, while the maximal release wells contained target cells and corresponding culture medium containing 1% Triton X-100. The plates were gently spun using a plate centrifuge for 2 minutes and then co-incubated at 37° C. under 5% CO2 for 4 hours. The plates were gently spun again. 100 μl of supernatant per well was transferred to a counting tube and labeled as appropriate. The cpm values were determined by a γ counter. All assays were performed in duplicate. The ratio of cpm values of the spontaneous release well to the maximal release well was <20%. Killing ratio (%)=[(mean cpm value of the experimental wells−mean cpm value of the spontaneous release wells)/(mean cpm value of the maximal release wells−mean cpm value of the spontaneous release wells)]×100
(§4) For further analyzing the above-mentioned killing effect, the target cells were blocked by applying anti-human MHC class I antibodies, for evaluating the effect of CTL epitope peptides. Firstly, the optimal concentration of MHC class I antibodies was determined to be 1:20 dilution (FIG. 9). […] The killing effect were not disturbed by MHC class I antibodies, i.e., unrelated to the effect of CD8 T cells. […] Its killing effect was disturbed by MHC class I antibodies, which was mainly mediated by CD8 T cells (FIG. 10). […] The former was unrelated to CD8 T cells whereas the latter was mediated by CD8 T cells.
For investigating the specificity and effectiveness of the killing effect of T-cell epitope peptides, the following experiments were carried out. T cells were stimulated by VH CDR3 peptide (30 μg/ml, final concentration), VL CDR 3 peptide (30 μg/ml), VH CDR3 peptide (15 μg/ml) and VL CDR3 peptide (15 μg/ml) as well as anti-idiotype antibody 6B11 (40 μg/ml), resulting in corresponding specific CTLs, which were used as effector cells. HOC1A cells were used as target cells for performing ^51Cr release assay, in order to compare the effectiveness of each antigen in stimulating immune responses. […] The killing effect of the specific CTLs obtained by stimulating with the combination of VH CDR3 peptide and VL CDR3 peptide was even stronger, which indicated a synergic effect between them. The killing effect of them was also stronger than that of 6B11-CTLs (FIG. 12). […] Their effects were more accurate than that of anti-idiotype antibody 6B11.

The subject of another assay is K562 cells. Description: 51Cr release assay, specific CTLs against K562 cells. The class given is cell-based. The note with it: non-specific killing.
Assay [3] deals with T2 cells loaded with corresponding peptides. Description: 51Cr release assay, peptide-CTLs against T2 cells loaded with peptide. Type of assay: cell-based. The note with it: for killing of T2 cells loaded with the peptide by peptide-CTLs: CTLs stimulated three periods, 4 hours, effector/target 40:1 to 5:1; for killing of peptide-stimulated T2 cells after MHC class I molecule blocking: anti-human MHC class I antibodies 1:20 dilution.
Source text: as §1, §2, §3, §4

On to “IALITTKIAWYFDV (VH CDR3 region peptide) [VH CDR3 peptide]”, for which, in the assay with CD4 T cells, the “proliferation of sorted CD4 T cells” value was “could trigger the proliferation”. In the assay with HOC1A cells [1], the “IFN-γ secretion by CTLs” value is reported as “high levels”, the “IL-2 secretion by CTLs” value was “high levels” and the “IL-4 secretion by CTLs” value is recorded as “low level”. In the assay on HOC1A cells [2], the “killing of HOC1A cells by peptide-CTLs” value is “could kill”; the “killing effect on HOC1A cells, comparison of antigens” value is listed as “could kill”; the “killing of HOC1A cells after MHC class I molecule blocking” value was “could still kill”. Moreover, in the assay on K562 cells, the “killing of K562 cells by specific CTLs” value is “could kill”. Further, in assay [3], the “killing of T2 cells loaded with the peptide by peptide-CTLs” value is reported as “could kill” and the “killing of peptide-stimulated T2 cells after MHC class I molecule blocking” value is listed as “could still kill”.

Turning to SQSTHFPYT (VL CDR3 region peptide), the “proliferation of sorted CD4 T cells” value with CD4 T cells was “could not trigger the proliferation”. Further, in the assay on HOC1A cells [1], the “IFN-γ secretion by CTLs” value is “high levels”, the “IL-2 secretion by CTLs” value is “high levels” and the “IL-4 secretion by CTLs” value was “low level”. Further, in the assay with HOC1A cells [2], the “killing of HOC1A cells by peptide-CTLs” value is listed as “could also kill”; the “killing effect on HOC1A cells, comparison of antigens” value is given as “could kill”; the “killing of HOC1A cells after MHC class I molecule blocking” value is “significantly inhibited”. The “killing of K562 cells by specific CTLs” value with K562 cells was “could not kill”. Besides, in assay [3], the “killing of T2 cells loaded with the peptide by peptide-CTLs” value is recorded as “could also kill” and the “killing of peptide-stimulated T2 cells after MHC class I molecule blocking” value is recorded as “significantly inhibited”.
